The values that follow come from patent US6995159B2, “5-HT receptor ligands and uses thereof” (Pfizer Inc., priority 2001, dated 2006).

One test deals with T1, human 5HT2c receptor (Homo sapiens, UniProt P28335).
T1 construct: expressed in transfected cells; host or cells: Swiss 3T3 mouse cells
T1 sequence (P28335 33-458): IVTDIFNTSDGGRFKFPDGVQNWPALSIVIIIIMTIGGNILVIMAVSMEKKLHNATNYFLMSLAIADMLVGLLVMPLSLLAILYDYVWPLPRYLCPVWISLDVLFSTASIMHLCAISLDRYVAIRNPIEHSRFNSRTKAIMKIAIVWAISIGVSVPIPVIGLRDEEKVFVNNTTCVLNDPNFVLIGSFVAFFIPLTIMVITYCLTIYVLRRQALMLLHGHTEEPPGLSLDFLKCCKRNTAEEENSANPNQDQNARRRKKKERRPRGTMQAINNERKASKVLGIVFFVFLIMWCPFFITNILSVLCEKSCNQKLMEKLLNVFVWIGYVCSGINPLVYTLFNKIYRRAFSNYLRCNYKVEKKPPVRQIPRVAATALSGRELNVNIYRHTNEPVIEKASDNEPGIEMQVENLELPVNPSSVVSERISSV
Description: 5HT2c binding procedure (competition binding against 3H-5HT). As to conditions: Swiss 3T3 mouse cells transfected with human 5HT2c receptor. How it is done:
Affinity of compounds at the serotonin 5HT2c binding site is determined by competition binding in Swiss 3T3 mouse cells (available from the American Type Culture Collection (ATCC), Manassas, Va.) transfected with the human 5HT2c receptor against 3H-5HT. The method is adapted from Roth et al., J. of Pharm. And Exp. Therap., 260(3), 1362–1365 (1992). Cells are grown in DMEM high glucose medium, harvested, homogenized, centrifuged, and resuspended in 50 mM Tris-HCL. They are incubated at 37° C. for 15 minutes, centrifuged, and then resuspended into assay buffer (50 mM Tris-HCl, 4 mM CaCl2, 0.1% ascorbic acid, and 100 μM pargyline at pH 7.7) at 100 volumes per gram. Assay tubes contain 25 μL of 10 nM ^3H-5HT (1 nM final conc.), and 25 μl of vehicle (assay buffer), blank (10 μM mianserin), or test compound (10X final volume). 200 μl of tissue homogenate is added to each tube, vortexed, and incubated for 30 minutes at 37° C. Samples are then rapidly filtered under vacuum with a Skatron™ cell harvester (available from Molecular Devices Corporation, Sunnyvale, Calif.) using GF/B filters presoaked in 0.5% polyethyleneimine (PEI), and washed with 2×5 mL cold 50 mM Tris-HCl. Filter mats are removed and counted in a Wallac Betaplate counter (available from PerkinElmer Life Sciences, Gaithersburg, Md.). Percent inhibition of specific binding by test compounds is used to calculate the Ki, or extrapolate concentration of test compound necessary to inhibit one-half of the total specific binding for each compound.

Another test deals with 5-HT2a receptor. Description: Functional assay (FLIPR calcium, Fluo 4-AM) in 5-HT2a expressed cells. The following applies: 5-HT2a expressed NIH 3T3 cells. Format: cell-based. The method, then: (§1) Swiss 3T3 cells expressing r-5HT2C, r-5HT2A, h-5HT2C or h-5HT2A receptors are seeded at a density of 12,500 cells/well in 384 well black/clear collagen-coated plates. Forty eight (48) hrs later the cells are loaded with the calcium sensitive dye, Fluo 4-AM (4 μM dissolved in DMSO containing pluronic acid) in serum free DMEM in the presence of probenicid (2.5 mM) for 75 minutes at 37° C. in a CO2 incubator. Unincorporated dye is removed by washing 3 times with a HEPES-buffered saline containing probenicid (2.5 mM) using a Skatron™ cell washer (final volume 30 μL).
(§2) Plates are added to a fluorometric imaging plate reader (FLIPR 384 available from Molecular Devices Corporation) individually and fluorescence measurements are taken every 2 seconds over an 85 seconds period. Test compound additions are made simultaneously to all 384 wells after 20 seconds of baseline recording. Concentration-response curves are generated using Graphpad Prism™ (available from GraphPad Software, Inc., San Diego, Calif.) and agonist efficacies are generated as % of the response to 10 μM 5-HT (considered as 100%). Estimation of antagonist potencies (functional Kis) are generated by measuring inhibition of the test compound response to 5-HT (10 nM for 5-HT2C and 50 nM for 5-HT2A) and applying the Cheng Prusoff equation.
The functional data for the compounds listed in the Examples above utilizing the 5-HT2a expressed NIH 3T3 cells is summarized below.

Another test has as its system 5-HT2c receptor. Description: Functional assay (FLIPR calcium, Fluo 4-AM) in 5-HT2c expressed cells. Format: cell-based. The following applies: at 10 μM; 5-HT2c expressed NIH 3T3 cells. How it is done: as §1, §2
The functional data for the compounds listed in the Examples above utilizing the 5-HT2c expressed NIH 3T3 cells is summarized below.

A further test concerns the target T2, rat 5HT2A receptor (Rattus norvegicus, UniProt P14842).
T2 construct: expressed in transfected cells; host or cells: NIH 3T3 mouse cells
Description: 5HT2A binding procedure (competition binding using 125I-DOI). As to conditions: NIH 3T3 mouse cells transfected with rat 5HT2A receptor. The method, then:
Affinity of compounds at the serotonin 5HT2A binding site is determined by competition binding in NIH 3T3 mouse cells transfected with the rat 5HT2A receptor using 1251-DOI. The method was adapted from Leonhardt et al., Molecular Pharmacology, 42, 328–335 (1992). Frozen cell paste is homgenized in 50 mM tris-HCl buffer pH 7.4 containing 2 mM MgCl2 using a Polytron and centrifuged at 45000×g for ten minutes. The resulting pellet is resuspended in fresh ice-cold 50 mM tris-HCl buffer pH 7.4 containing 2 mM MgCl2 using a Polytron™ and centrifuged again at 45000×g for ten minutes. The final pellet is resuspended in 50 mM tris-HCl buffer pH 7.4 containing 2 mM MgCl2 at a concentration of 5 mg/mL. Wells in a 96 well plate contain 25 μL of 0.7 nM 1251-DOI (70 pM final conc.), and 25 μL of vehicle (assay buffer), blank (10 μM cinanserin), or test compound (10× final volume). […] Filter mats are removed, dried and counted in a Wallac Betaplate counter. Concentration-response curves of the % inhibition of specific binding and log concentration by test compounds was used to determine the IC50 for each compound and the Ki value calculated based on the Cheng-Prusof equation (Ki=IC50/(1+(L/Kd)), where L is the concentration of the radioligand used in the binding assay and the Kd is based on previous saturation studies with the radioligand.

T2 sequence (P14842 whole entry): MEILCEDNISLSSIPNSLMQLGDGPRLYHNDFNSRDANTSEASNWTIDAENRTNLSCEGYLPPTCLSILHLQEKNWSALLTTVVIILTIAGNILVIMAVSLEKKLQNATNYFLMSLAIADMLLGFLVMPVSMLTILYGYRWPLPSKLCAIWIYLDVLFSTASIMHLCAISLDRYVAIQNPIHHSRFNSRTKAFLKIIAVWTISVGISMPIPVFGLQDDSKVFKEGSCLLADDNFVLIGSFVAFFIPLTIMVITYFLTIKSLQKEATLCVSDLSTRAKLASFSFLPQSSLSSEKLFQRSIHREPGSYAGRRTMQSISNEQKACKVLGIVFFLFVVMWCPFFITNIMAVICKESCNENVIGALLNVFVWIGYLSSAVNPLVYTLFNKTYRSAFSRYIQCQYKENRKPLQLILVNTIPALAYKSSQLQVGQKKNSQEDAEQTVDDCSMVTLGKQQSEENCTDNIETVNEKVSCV

In general, Ki refers to the dissociation constant of the complex between target and ligand, obtained from inhibition or displacement. Higher therefore signals lower affinity. With `C[C@@H]1CN(c2ccnc(OCc3cccc(Cl)c3)n2)C[C@H](C)N1` [Example 1-NN, 2-(3-Chloro-benzyloxy)-4-[(3R,5S)-dimethyl-piperazin-1-yl]-pyrimidine], the Ki on human 5HT2c receptor is > 500 nM. The 5-HT2a functional activity entry in the test on 5-HT2a receptor (at 10 μM) is “no functional activity”. Moreover, in the test on 5-HT2c receptor, the 5-HT2c functional activity entry is recorded as “no 5-HT2c functional activity”. In addition, at rat 5HT2A receptor, the 5HT2a binding activity entry is “no binding activity”.

For `Cl.c1ccc(COc2nccc(N3CCNCC3)n2)nc1` [Example 5-B, 4-Piperazin-1-yl-2-(pyridin-2-ylmethoxy)-pyrimidine, hydrochloride], the Ki at human 5HT2c receptor is > 500 nM. Also, the “functional mode at 5-HT2a (partial agonist / full antagonist)” value in the test on 5-HT2a receptor was “full antagonists”.

Turning to `Cc1cccc(COc2nccc(N3CCNCC3)n2)n1.Cl` [Example 5-C, 2-(6-Methyl-pyridin-2-ylmethoxy)-4-piperazin-1-yl-pyrimidine, hydrochloride], the Ki at human 5HT2c receptor is > 500 nM. Moreover, the “functional mode at 5-HT2a (partial agonist / full antagonist)” value with 5-HT2a receptor is “full antagonists”.
